Source: PMC7955127, “Preclinical small molecule WEHI-7326 overcomes drug resistance and elicits response in patient-derived xenograft models of human treatment-refractory tumors” (Cell Death & Disease, 2021)

Assays:
LIM1899 = test: Cell growth inhibition assay, LIM1899; type: cell-based; conditions: Homo sapiens; LIM1899, colon carcinoma; 72 h viability assay, CellTiterGlo; mean of 3 ± SEM; read-out: IC50 (inhibition of cellular proliferation)
Protocol: Cells were plated at a density of between 500 to 5000 cells per well for adherent cell lines depending on doubling time, and 15,000 cells per well for lymphoblastic leukemia cell lines, in a 96-well plate in 200 μl of growth media. Plates were incubated overnight at 37 °C before adding the inhibitors. Inhibitors were serially diluted from the stock solutions in complete medium and added to the cells. […] Cell viability was assessed by the AlamarBlue (Invitrogen) or CellTiterBlue/Glo (Promega) method according to manufacturer’s instructions. The curve fits and IC50 values were generated in PRISM (GraphPad, San Diego, CA).

CEM = test: Cell growth inhibition assay, CEM; type: cell-based; conditions: Homo sapiens, CCRF-CEM, acute lymphoblastic leukemia, 72 h viability assay, Alamar Blue, mean of 3 ± SEM, read-out: IC50 (inhibition of cellular proliferation)
Protocol: Cells were plated at a density of between 500 to 5000 cells per well for adherent cell lines depending on doubling time, and 15,000 cells per well for lymphoblastic leukemia cell lines, in a 96-well plate in 200 μl of growth media. Plates were incubated overnight at 37 °C before adding the inhibitors. Inhibitors were serially diluted from the stock solutions in complete medium and added to the cells. Incubation in the presence of inhibitors was continued for […]. Cell viability was assessed by the AlamarBlue (Invitrogen) or CellTiterBlue/Glo (Promega) method according to manufacturer’s instructions. The curve fits and IC50 values were generated in PRISM (GraphPad, San Diego, CA).
Parental human lymphoblastic leukemia cells (CEM) and their drug resistant derivatives (dEpoB30 and dEpoB300) were cultured in the presence of increasing amounts of WEHI-7326, paclitaxel or epothilone B. Cell survival was determined as described in Experimental Procedures. Shown are mean of 3 experiments +/- SEM. Dose response curves were fitted in PRISM using non-linear regression (4 parameter logistic) to calculate IC50 values.

tubulin in SW480 cells = test: Tubulin polymerization in cells (polymerized vs soluble, western blot); type: cell-based, human; conditions: 100 nM, overnight, vs control cells
Protocol: Cells incubated with control or with inhibitors were lysed in hypotonic buffer (1 mM MgCl2/2 mM EGTA/0.5% Nonidet P-40/20 mM Tris·HCl, pH 6.8 with the addition of complete protease inhibitor cocktail). The lysates were centrifuged at 14,000 rpm for 10 min at RT. Supernatants (containing soluble tubulin) and pellets (containing polymerized tubulin) were separated and each sample was brought to an equal volume with hypotonic buffer. Proteins were resolved by SDS/PAGE on 4–12% gels (Invitrogen, Carlsbad, CA), transferred to nitrocellulose and immunoblotted with an antibody against tubulin followed by fluorescent secondary antibody. Immunoreactive bands were detected using an Odyssey photometer (Li-Cor, Lincoln, NB).

[1] = system: PC3 (human prostate carcinoma) xenograft; test: PC3 tumor xenograft in nude mice; type: in vivo, Balb/c nude mice; conditions: male nude mice, day 17, biweekly i.v.
Protocol: LoVo (4 × 10^6), PC3 (3 × 10^6) or MDA-MB-231 LNA DRE (10^6) cells were collected by trypsination and injected with 50 μl 1:1 PBS:Matrigel (v/v) subcutaneously on the right flank of 18 female (LoVo), 40 male (PC3) or into 4th mammary fat pad of 40 female (MDA231) Balb/c nude mice. Tumor growth was monitored and average tumor size at commencement of dosing was 100 mm^3. Mice were randomized into 3 arms of each 5 (LoVo), 10 (PC3) or 12 (MDA23) mice respectively and treatment with vehicle (saline), WEHI-7326 (biweekly) or docetaxel (weekly) was administered via tail vein injection. Tumor volumes were measured at least twice weekly with calipers and the experiments were terminated when tumors in the control group started exceeding 1500 mm^3. For LoVo, both vehicle and 25 mg/kg WEHI-7326 groups were harvested 24 h, but 20 mg/kg WEHI-7326 group harvested 1 h post final dose. For PC3, docetaxel group was not harvested in an attempt to grow out resistant tumors.

[2] = system: COG-N-496x neuroblastoma PDX; test: High-risk neuroblastoma PDX COG-N-496x; type: in vivo, NSG mice; conditions: COG-N-496x PDX; 20 mg/kg i.v. twice weekly
Protocol: All animal studies were performed in accordance with the guidelines approved by University of New South Wales Animal Care and Ethics Committee (ACEC 17/53B) and in accordance with the requirements of the Australian Code for the Care and Use of Animals for Scientific Purposes. PDX models COG-N-440x and COG-N-496x were obtained from the Childhood Cancer Repository, Texas Tech University Health Sciences Center in Lubbock, TX, USA. 6–8 week old female NSG mice were engrafted by subcutaneous injection with 1 × 10^6 freshly thawed PDX tumor cells into one flank in a mixture of 100 μl RPMI-1640 and 100 μl Matrigel. Mice were monitored for tumor development three times weekly and tumor size measured using digital Vernier calipers. Treatments commenced when tumors reached 50 mm^3, following randomization into treatment arms. […] Mice were treated with either vincristine (0.5 mg/kg, once weekly i.p. in sterile saline for up to 5 weeks), WEHI-7326 (20 mg/kg; twice weekly i.v. in sterile saline for up to 5 weeks) or vehicle (as for WEHI-7326). For the Th-MYCN transgenic mouse model, spontaneous tumor growth in mice homozygous for the MYCN transgene was assessed by abdominal palpation at least twice a week. Treatments commenced once a small palpable tumor (~5 mm) was detected, following randomization to treatment arms. Mice were euthanized upon detection of an abdominal tumor of ~1 cm in diameter. […]

For COc1ccc(CNc2nc(NCc3ccc(CN)cc3)nc(NN3CC(=O)NC3=O)n2)cc1 [WEHI-7326], the IC50 (LIM1899) was 31.3 ± 2.6 nM, the IC50 (CEM) was 3.99 ± 0.04 nM and the “Change in ratio of polymerized to soluble tubulin” value (tubulin in SW480 cells) was “no significant change”. The “Tumor growth inhibition (TGI)” value [1] was ~ 75% and the Median survival [2] was 25 days.
